Here are results for nine molecules from DBAASP.

Values after ≈ are worked out from the molar mass of the structure shown. Bounds are passed on as bounds.

Holding throughout (assay): ≥ marks a high value that may be exact or a test limit, other limits are often not marked, values filed in µg/mL are converted to µM
The subject of assay [1] is Batrachochytrium dendrobatidis JEL-197.
Assay [2] relates to Escherichia coli ATCC 25922.
Assay [3] relates to Candida albicans ATCC 90028.
Assay [4] deals with Staphylococcus aureus NCTC 8325.
The subject of assay [5] is Staphylococcus aureus NCTC 10788.
For assay [6], the system named is Candida albicans NCPF 1467.
Assay [7] concerns Escherichia coli NCTC 10418.
In assay [8] the test system is Staphylococcus aureus ATCC 25923.
The subject of assay [9] is Escherichia coli ATCC 25726.
Assay [10] concerns Staphylococcus aureus.
The subject of assay [11] is Bacillus subtilis 168.
Assay [12] deals with Pseudomonas aeruginosa.
Assay [13] deals with Escherichia coli B.
Assay [14] deals with Pseudomonas corrugata DSM 7228.
Assay [15] deals with Pseudomonas aeruginosa ATCC 9027.
Assay [16] has as its system Xanthomonas vesicatoria DSM 50861.
The subject of assay [17] is Pseudomonas syringae pv. syringae DSM 10604.
The test system of assay [18] is Pseudomonas syringae pv. tomato DC3000.
The test system of assay [19] is Botrytis cinerea.
The subject of assay [20] is Cladosporium herbarum.
The subject of assay [21] is Pectobacterium carotovorum subsp. carotovorum DSM 30168.
Assay [22] relates to Micrococcus luteus ATCC 9341.
Assay [23] relates to Fusarium solani.
Assay [24] has as its system Staphylococcus aureus ATCC 6538.
Assay [25] has as its system Alternaria alternata.
Assay [26] deals with Clavibacter michiganensis subsp. michiganensis DSM 46294.
Assay [27] has as its system Streptococcus pyogenes KCTC 3096.
Assay [28] concerns Bacillus subtilis KCTC 1918.
Assay [29] concerns Salmonella typhimurium KCTC 1926.
The subject of assay [30] is Pseudomonas aeruginosa KCTC 1637.
For assay [31], the system named is Staphylococcus aureus KCTC 1621.
In assay [32] the test system is Escherichia coli KCTC 1682.
The test system of assay [33] is Cryptococcus neoformans ATCC 32264.
For assay [34], the system named is Candida albicans ATCC 10231.

What is called MIC is the smallest concentration in the dilution series that meets the test's criterion for growth inhibition. A lower MIC goes with a more susceptible organism. As to `CC[C@H](C)[C@H](NC(=O)[C@@H]1CCCN1C(=O)[C@H](CC(C)C)NC(=O)[C@@H](N)Cc1ccccc1)C(=O)N[C@@H](CC(C)C)C(=O)N[C@@H](C)C(=O)N[C@@H](CO)C(=O)N[C@@H](CC(C)C)C(=O)N[C@@H](C)C(=O)N[C@@H](C)C(=O)N[C@@H](CCCCN)C(=O)N[C@@H](CC(C)C)C(=O)NCC(=O)N1CCC[C@H]1C(=O)N[C@@H](CCCCN)C(=O)N[C@@H](CC(C)C)C(=O)N[C@@H](Cc1ccccc1)C(=O)N[C@H]1CSSC[C@@H](C(=O)O)NC(=O)[C@H](CCCCN)NC(=O)[C@H](CCCCN)NC(=O)[C@H]([C@@H](C)O)NC(=O)[C@H](C(C)C)NC(=O)[C@H](CC(C)C)NC1=O` [FLPILASLAAKLGPKLFCLVTKKC], the MIC in assay [1] was found to be 6.25 µM (≈ 16.1 µg/mL); in assay [2] it was 16 µM (≈ 41.2 µg/mL); in [3], 16 µM (≈ 41.2 µg/mL); in [4] it was 4 µM (≈ 10.3 µg/mL).

For `CC[C@H](C)[C@H](NC(=O)CNC(=O)[C@H](CO)NC(=O)[C@H](C)NC(=O)[C@@H](NC(=O)[C@H](Cc1cnc[nH]1)NC(=O)[C@@H]1CCCN1C(=O)[C@H](CC(C)C)NC(=O)[C@H](CC(C)C)NC(=O)[C@H](CO)NC(=O)[C@H](CC(C)C)NC(=O)[C@@H](N)Cc1ccccc1)[C@@H](C)CC)C(=O)N[C@@H](C)C(=O)N[C@@H](CO)C(=O)N[C@@H](CC(C)C)C(=O)N[C@H](C(=O)N[C@@H](CO)C(=O)N[C@@H](CCCCN)C(=O)N[C@@H](Cc1ccccc1)C(N)=O)C(C)C` [FLSLLPHIASGIASLVSKF], the MIC in assay [5] is 5 µM (≈ 10 µg/mL); in assay [6], 15 µM (≈ 30 µg/mL); in assay [7], no less than 200 µM.

As for `CC[C@H](C)[C@H](NC(=O)CN)C(=O)N[C@@H](CC(C)C)C(=O)N[C@@H](CO)C(=O)N[C@@H](CO)C(=O)N[C@@H](Cc1ccccc1)C(=O)N[C@@H](CCCCN)C(=O)N[C@@H](CC(=O)O)C(=O)N[C@H](C(=O)N[C@@H](C)C(=O)N[C@@H](CCCCN)C(=O)NCC(=O)N[C@H](C(=O)N[C@@H](C)C(=O)N[C@@H](CCCCN)C(=O)N[C@@H](CC(N)=O)C(=O)N[C@H](C(=O)N[C@@H](C)C(=O)N[C@@H](C)C(=O)N[C@@H](CCC(N)=O)C(=O)N[C@@H](CC(C)C)C(=O)N[C@@H](CC(C)C)C(=O)N[C@@H](CC(=O)O)C(=O)N[C@@H](CCCCN)C(=O)N[C@@H](CC(C)C)C(=O)N[C@@H](CCCCN)C(=O)N[C@H]1CSSC[C@@H](C(=O)O)NC(=O)CNC(=O)[C@H]([C@@H](C)O)NC(=O)[C@H]([C@@H](C)CC)NC(=O)[C@H](CCCCN)NC1=O)C(C)C)C(C)C)C(C)C` [GILSSFKDVAKGVAKNVAAQLLDKLKCKITGC], the MIC is no less than 50 µM in assay [1], 20 µM (≈ 66.4 µg/mL) in [8] and 10 µM (≈ 33.2 µg/mL) in assay [9].

Turning to `CC[C@H](C)[C@H](NC(=O)[C@H](CCCCN)NC(=O)[C@H](CCCCN)NC(=O)[C@H](CC(C)C)NC(=O)[C@H](CC(C)C)NC(=O)[C@H](CO)NC(=O)[C@H](CCSC)NC(=O)[C@H](Cc1c[nH]c2ccccc12)NC(=O)[C@H](CCCCN)NC(=O)CN)C(=O)N[C@@H](CC(C)C)C(=O)N[C@@H](CCCCN)C(N)=O` [GKWMSLLKKILK], the MIC was 6.3 µM (≈ 9.1 µg/mL) in assay [10], 1.2 µM (≈ 1.73 µg/mL) in [11], 13.8 µM (≈ 19.9 µg/mL) in assay [12] and 2.7 µM (≈ 3.9 µg/mL) in assay [13].

Turning to `CC[C@H](C)[C@H](N)C(=O)N[C@@H](CC(C)C)C(=O)N1CCC[C@H]1C(=O)N[C@@H](Cc1c[nH]c2ccccc12)C(=O)N[C@@H](CCCCN)C(=O)N[C@@H](Cc1c[nH]c2ccccc12)C(=O)N1CCC[C@H]1C(=O)N[C@@H](Cc1c[nH]c2ccccc12)C(=O)N[C@@H](Cc1c[nH]c2ccccc12)C(=O)N1CCC[C@H]1C(=O)N[C@@H](Cc1c[nH]c2ccccc12)C(=O)N[C@@H](CCCNC(=N)N)C(=O)N[C@@H](CCCNC(=N)N)C(=O)O` [ILPWKWPWWPWRR], the MIC in assay [14] was no less than 33.6 µM; in assay [15], greater than 105 µM; in assay [16], 1.05 µM (≈ 2 µg/mL); in assay [17], no less than 33.6 µM; in assay [18], no less than 33.6 µM; in assay [19], 16.8 µM (≈ 32 µg/mL). Also, the MIC in [20] is no less than 33.6 µM; in [21], no less than 33.6 µM; in [22] it was 1.6 µM (≈ 3.05 µg/mL); in assay [23], 4.19 µM (≈ 8 µg/mL); in assay [24], 5.24 µM (≈ 10 µg/mL); in assay [25], 16.8 µM (≈ 32 µg/mL). In assay [26], the MIC stood at 0.524 µM (≈ 1 µg/mL).

Consider `CC[C@H](C)[C@H](NC(=O)[C@H](CCCCN)NC(=O)[C@H](CCCCN)NC(=O)[C@H](Cc1ccccc1)NC(=O)[C@H](CC(C)C)NC(=O)[C@H](CCCCN)NC(=O)[C@H](Cc1c[nH]c2ccccc12)NC(=O)[C@@H](N)CCCCN)C(=O)N[C@@H](CCCCN)C(=O)N[C@@H](Cc1ccccc1)C(=O)N[C@@H](CC(C)C)C(=O)N[C@@H](Cc1cnc[nH]1)C(=O)N[C@@H](CO)C(=O)N[C@@H](C)C(=O)N[C@@H](CCCCN)C(=O)N[C@@H](CCCCN)C(=O)N[C@@H](Cc1ccccc1)C(N)=O` [KWKLFKKIKFLHSAKKF], for which the MIC in assay [27] was determined as 0.78 µM (≈ 1.7 µg/mL); in assay [28], 1.56 µM (≈ 3.4 µg/mL); in [29], 0.78 µM (≈ 1.7 µg/mL); in [30] it was 1.56 µM (≈ 3.4 µg/mL); in [31], 3.12 µM (≈ 6.8 µg/mL); in assay [32], 6.25 µM (≈ 13.6 µg/mL).

Regarding `CC[C@H](C)[C@H](NC(=O)[C@H](CC(C)C)NC(=O)[C@@H](N)CC(C)C)C(=O)N[C@@H](C)C(=O)N[C@@H](C)C(=O)N[C@@H](Cc1ccccc1)C(=O)N[C@@H](CCCCN)C(=O)N[C@@H](CCCCN)C(=O)N[C@@H](CC(C)C)C(=O)N[C@H](C(=O)N[C@@H](CCCCN)C(=O)N[C@@H](CCCCN)C(N)=O)C(C)C` [LLIAAFKKLVKK], the MIC is 29.2 µM (≈ 40 µg/mL) in [14]; 29.2 µM (≈ 40 µg/mL) in [16]; 29.2 µM (≈ 40 µg/mL) in assay [17]; 29.2 µM (≈ 40 µg/mL) in assay [18]; no less than 72.9 µM in assay [19]; no less than 72.9 µM in assay [20]. The values for the MIC in [21], in [25] and in assay [26] were 29.2 µM (≈ 40 µg/mL), no less than 72.9 µM and 14.6 µM (≈ 20 µg/mL), respectively.

Consider `NCCCC[C@H](NC(=O)[C@H](CCCCN)NC(=O)[C@H](Cc1c[nH]c2ccccc12)NC(=O)[C@H](CCCCN)NC(=O)[C@H](CCCN=C(N)N)NC(=O)[C@H](CCCN=C(N)N)NC(=O)[C@H](Cc1c[nH]c2ccccc12)NC(=O)[C@H](CCCCN)NC(=O)[C@@H](N)CCCN=C(N)N)C(N)=O` [RKWRRKWKK], for which the results for the MIC in [33] and in [34] were no less than 200 µM and 200 µM (≈ 274 µg/mL), respectively.

Take `NC(=O)CC[C@H](NC(=O)[C@H](Cc1c[nH]c2ccccc12)NC(=O)[C@H](CCCN=C(N)N)NC(=O)[C@H](CCCN=C(N)N)NC(=O)[C@H](Cc1c[nH]c2ccccc12)NC(=O)[C@H](Cc1c[nH]c2ccccc12)NC(=O)[C@H](CCCN=C(N)N)NC(=O)[C@@H](N)Cc1c[nH]c2ccccc12)C(=O)N[C@@H](CCCN=C(N)N)C(N)=O` [WRWWRRWQR]: the MIC in [33] was determined as 25 µM (≈ 37.9 µg/mL); in assay [34] it was 50 µM (≈ 75.7 µg/mL).
